Measured values reported in ChEMBL document CHEMBL3991601, “The target landscape of clinical kinase drugs” (Science, 2017).
Calls of active or inactive are those of the source.

Legend:
[1] = target: T1, Peroxisomal acyl-coenzyme A oxidase 1 (Homo sapiens, UniProt Q15067)
T1 sequence (Q15067 whole entry): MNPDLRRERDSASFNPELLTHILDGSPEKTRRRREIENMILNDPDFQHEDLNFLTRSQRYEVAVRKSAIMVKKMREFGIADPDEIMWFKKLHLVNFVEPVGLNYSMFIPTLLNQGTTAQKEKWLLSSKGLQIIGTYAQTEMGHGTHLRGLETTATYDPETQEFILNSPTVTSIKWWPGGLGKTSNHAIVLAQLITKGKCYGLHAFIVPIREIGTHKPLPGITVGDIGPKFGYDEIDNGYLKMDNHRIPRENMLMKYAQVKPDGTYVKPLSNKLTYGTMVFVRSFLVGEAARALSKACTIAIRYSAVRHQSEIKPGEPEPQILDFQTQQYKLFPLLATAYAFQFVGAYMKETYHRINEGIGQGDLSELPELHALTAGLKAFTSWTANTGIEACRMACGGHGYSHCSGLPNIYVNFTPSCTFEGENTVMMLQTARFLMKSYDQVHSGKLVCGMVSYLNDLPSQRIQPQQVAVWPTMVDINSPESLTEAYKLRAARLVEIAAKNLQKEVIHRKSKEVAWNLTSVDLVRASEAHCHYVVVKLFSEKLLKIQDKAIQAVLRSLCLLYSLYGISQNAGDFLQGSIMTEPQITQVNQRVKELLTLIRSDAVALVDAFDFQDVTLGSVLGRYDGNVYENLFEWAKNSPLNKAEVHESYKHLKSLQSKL

[2] = target: Calcium/calmodulin-dependent protein kinase type II subunit delta (Homo sapiens, UniProt Q13557)
[3] = target: Tyrosine-protein kinase CSK (Homo sapiens, UniProt P41240)
[4] = target: GTP-binding protein 4 (Homo sapiens, UniProt Q9BZE4)
[5] = target: T2, Phosphorylase b kinase gamma catalytic chain, liver/testis isoform (Homo sapiens, UniProt P15735)
T2 sequence (P15735 whole entry): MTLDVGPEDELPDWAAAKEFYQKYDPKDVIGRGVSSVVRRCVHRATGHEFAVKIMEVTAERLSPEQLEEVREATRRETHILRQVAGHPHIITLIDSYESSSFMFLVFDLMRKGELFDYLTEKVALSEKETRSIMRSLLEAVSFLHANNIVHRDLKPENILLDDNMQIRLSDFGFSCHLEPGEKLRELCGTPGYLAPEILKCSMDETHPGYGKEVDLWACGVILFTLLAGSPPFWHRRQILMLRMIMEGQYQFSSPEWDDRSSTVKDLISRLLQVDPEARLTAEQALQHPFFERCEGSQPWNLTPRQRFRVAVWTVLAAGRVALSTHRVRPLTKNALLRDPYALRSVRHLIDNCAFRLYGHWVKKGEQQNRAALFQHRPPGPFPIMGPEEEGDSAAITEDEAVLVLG

[6] = target: T3, Ras-related protein Rab-10 (Homo sapiens, UniProt P61026)
T3 sequence (P61026 whole entry): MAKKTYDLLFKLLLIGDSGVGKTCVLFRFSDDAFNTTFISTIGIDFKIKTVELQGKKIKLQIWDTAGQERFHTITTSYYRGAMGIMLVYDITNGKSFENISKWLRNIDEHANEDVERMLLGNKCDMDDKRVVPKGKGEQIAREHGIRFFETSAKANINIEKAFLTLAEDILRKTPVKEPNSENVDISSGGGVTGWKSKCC

[7] = target: T4, Exosome RNA helicase MTR4 (Homo sapiens, UniProt P42285)
T4 sequence (P42285 whole entry): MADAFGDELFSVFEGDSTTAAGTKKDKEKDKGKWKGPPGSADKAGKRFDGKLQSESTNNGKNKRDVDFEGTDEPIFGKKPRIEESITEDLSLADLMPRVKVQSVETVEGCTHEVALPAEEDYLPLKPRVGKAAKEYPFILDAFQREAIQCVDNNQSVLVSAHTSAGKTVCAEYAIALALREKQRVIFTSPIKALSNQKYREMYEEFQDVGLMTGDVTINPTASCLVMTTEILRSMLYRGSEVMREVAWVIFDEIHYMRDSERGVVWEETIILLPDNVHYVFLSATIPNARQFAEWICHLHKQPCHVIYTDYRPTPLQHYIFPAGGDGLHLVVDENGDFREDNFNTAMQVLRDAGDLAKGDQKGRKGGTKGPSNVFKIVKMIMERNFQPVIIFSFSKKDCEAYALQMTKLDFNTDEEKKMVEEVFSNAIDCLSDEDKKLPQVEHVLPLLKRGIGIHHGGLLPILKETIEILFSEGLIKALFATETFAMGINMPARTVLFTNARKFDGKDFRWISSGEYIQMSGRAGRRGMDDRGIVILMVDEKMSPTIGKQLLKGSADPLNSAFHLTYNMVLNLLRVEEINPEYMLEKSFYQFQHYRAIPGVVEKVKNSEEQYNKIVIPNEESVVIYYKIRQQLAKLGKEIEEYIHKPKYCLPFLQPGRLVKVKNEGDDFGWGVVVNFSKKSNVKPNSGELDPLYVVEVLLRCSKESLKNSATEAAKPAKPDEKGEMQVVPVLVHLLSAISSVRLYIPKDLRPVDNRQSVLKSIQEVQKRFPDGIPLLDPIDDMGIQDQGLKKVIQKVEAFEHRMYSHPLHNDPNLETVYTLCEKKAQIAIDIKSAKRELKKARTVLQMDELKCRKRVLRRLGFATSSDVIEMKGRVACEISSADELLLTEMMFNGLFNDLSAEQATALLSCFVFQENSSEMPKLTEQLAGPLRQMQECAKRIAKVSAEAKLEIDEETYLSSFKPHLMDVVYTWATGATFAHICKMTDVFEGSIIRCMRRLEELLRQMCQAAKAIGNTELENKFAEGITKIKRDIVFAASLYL

[8] = target: Activated CDC42 kinase 1 (Homo sapiens, UniProt Q07912)
[9] = target: Elongation factor Tu, mitochondrial (Homo sapiens, UniProt P49411)
[10] = target: Mitogen-activated protein kinase kinase kinase 20 (Homo sapiens, UniProt Q9NYL2)
Note: in the data inactive means no Kd found up to 30 µM.

Sequence of Tyrosine-protein kinase CSK (P41240 whole entry): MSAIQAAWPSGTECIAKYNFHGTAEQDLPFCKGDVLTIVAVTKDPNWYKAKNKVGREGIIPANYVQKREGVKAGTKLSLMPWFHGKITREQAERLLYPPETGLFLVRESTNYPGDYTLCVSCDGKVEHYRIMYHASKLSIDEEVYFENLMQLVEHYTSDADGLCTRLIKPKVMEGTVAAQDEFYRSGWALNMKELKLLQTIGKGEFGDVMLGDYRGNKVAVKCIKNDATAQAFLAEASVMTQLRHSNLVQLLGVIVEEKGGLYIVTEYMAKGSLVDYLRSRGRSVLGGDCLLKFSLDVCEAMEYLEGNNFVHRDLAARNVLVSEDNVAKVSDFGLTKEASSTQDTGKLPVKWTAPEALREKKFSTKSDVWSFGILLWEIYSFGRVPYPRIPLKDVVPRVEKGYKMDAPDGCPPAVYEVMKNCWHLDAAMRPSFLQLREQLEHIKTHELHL
Sequence of Calcium/calmodulin-dependent protein kinase type II subunit delta (Q13557 whole entry): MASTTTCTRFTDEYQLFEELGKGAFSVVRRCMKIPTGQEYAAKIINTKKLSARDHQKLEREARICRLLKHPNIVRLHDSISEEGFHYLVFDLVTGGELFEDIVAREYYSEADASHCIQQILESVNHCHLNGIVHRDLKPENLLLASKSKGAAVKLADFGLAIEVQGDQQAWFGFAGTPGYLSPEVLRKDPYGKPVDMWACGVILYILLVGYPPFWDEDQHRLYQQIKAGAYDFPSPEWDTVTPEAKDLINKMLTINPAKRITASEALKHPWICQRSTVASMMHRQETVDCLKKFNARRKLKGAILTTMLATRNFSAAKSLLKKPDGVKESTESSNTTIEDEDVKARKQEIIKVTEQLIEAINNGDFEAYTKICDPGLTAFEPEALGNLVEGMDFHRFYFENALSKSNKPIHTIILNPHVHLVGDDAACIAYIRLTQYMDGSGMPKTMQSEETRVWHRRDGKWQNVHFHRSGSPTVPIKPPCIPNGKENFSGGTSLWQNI
Sequence of Activated CDC42 kinase 1 (Q07912 whole entry): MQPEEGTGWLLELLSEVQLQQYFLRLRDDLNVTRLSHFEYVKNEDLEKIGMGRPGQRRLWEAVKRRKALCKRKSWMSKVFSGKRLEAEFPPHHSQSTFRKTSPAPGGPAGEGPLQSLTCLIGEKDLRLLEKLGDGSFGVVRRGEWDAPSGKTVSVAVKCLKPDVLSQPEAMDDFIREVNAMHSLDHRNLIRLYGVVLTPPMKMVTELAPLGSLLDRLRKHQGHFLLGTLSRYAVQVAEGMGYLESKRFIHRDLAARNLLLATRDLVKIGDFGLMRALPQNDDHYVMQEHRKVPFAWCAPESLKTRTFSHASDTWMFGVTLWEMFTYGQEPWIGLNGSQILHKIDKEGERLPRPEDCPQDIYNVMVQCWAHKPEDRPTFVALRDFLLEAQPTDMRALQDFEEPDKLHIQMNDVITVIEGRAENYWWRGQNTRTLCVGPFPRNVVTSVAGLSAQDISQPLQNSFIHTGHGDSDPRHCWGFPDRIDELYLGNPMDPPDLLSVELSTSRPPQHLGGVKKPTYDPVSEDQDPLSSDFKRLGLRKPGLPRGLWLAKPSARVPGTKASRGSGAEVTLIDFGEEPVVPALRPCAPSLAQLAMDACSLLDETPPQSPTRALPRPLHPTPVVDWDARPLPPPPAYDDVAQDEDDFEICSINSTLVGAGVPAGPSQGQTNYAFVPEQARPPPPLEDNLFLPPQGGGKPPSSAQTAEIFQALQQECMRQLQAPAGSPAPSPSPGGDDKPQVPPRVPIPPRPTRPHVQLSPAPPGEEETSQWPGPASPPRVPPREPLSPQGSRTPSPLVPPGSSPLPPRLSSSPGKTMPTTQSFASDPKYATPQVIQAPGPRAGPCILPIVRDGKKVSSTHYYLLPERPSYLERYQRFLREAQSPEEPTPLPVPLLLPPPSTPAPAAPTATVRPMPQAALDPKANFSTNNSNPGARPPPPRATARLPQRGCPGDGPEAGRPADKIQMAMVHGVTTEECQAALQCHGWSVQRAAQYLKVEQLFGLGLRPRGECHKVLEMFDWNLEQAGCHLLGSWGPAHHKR
Sequence of Mitogen-activated protein kinase kinase kinase 20 (Q9NYL2 whole entry): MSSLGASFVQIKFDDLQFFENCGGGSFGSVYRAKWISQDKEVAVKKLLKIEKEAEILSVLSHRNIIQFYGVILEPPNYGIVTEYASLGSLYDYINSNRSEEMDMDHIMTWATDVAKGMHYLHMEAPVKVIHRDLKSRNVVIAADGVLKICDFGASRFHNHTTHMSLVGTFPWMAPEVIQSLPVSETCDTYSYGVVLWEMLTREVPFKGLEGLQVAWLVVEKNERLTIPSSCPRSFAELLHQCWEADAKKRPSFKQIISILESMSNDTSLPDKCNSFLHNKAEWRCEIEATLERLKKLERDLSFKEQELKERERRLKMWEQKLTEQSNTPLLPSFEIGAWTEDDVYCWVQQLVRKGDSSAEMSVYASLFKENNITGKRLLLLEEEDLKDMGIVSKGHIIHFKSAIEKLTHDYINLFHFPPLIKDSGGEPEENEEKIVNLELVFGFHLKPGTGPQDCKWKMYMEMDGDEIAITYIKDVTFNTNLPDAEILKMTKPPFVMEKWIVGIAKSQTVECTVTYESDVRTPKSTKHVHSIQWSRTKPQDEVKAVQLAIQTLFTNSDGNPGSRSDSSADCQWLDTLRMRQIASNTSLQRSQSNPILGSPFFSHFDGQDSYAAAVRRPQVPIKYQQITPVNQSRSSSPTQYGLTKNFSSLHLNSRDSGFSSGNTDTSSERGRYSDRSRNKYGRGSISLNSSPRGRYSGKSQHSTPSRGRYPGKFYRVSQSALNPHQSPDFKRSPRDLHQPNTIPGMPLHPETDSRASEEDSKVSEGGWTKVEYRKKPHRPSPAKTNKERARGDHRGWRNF

| SMILES | Kd [1] | Kd [2] | Kd [3] | Kd [4] | Kd [5] | Kd [6] | Kd [7] | Kd [8] | Kd [9] | Kd [10] |
| --- | --- | --- | --- | --- | --- | --- | --- | --- | --- | --- |
| COc1cc(CCc2cc(NC(=O)c3ccc(N4C[C@@H](C)N[C@@H](C)C4)cc3)n[nH]2)cc(OC)c1 [AZD-4547] | > 30 µM (inactive) | > 30 µM (inactive) | > 30 µM (inactive) | > 30 µM (inactive) | > 30 µM (inactive) | > 30 µM (inactive) | > 30 µM (inactive) | 0.148 µM | > 30 µM (inactive) | 9.54 µM (active) |
| Cc1cc([C@@H](C)Nc2ccccc2C(=O)O)c2nc(N3CCOCC3)cc(=O)n2c1 [AZD-6482] | > 30 µM (inactive) | > 30 µM (inactive) | > 30 µM (inactive) | > 30 µM (inactive) | > 30 µM (inactive) | > 30 µM (inactive) | > 30 µM (inactive) | > 30 µM (inactive) | > 30 µM (inactive) | > 30 µM (inactive) |
